For the series, the system named is FaDu tumor. Kind of series: In vivo radiosensitization therapy of FaDu tumor-bearing NuNu mice. Conditions: bi-flank FaDu tumor-bearing NuNu mice, single chemical dose (20% of MTD) followed by single 10 Gy external beam radiotherapy. An excerpt:
In very brief, the evaluation of radiosensitization potential of IAZA using a single chemical dose (20% of the maximum tolerated dose; MTD) and a single radiation dose (10 Gy) was done in ‘bi-flank FaDu tumor-bearing NuNu mice was done. Benefits of IAZA-bestowed radiosensitization therapy effects were compared with the conventional radiotherapy alone (a single 10 Gy dose).
FIGS. 28 and 29 depict IN VIVO RADIOSENSITIZATION THERAPY OF FaDu TUMOR BEARING NU-NU MICE USING A SINGLE CHEMICAL DOSE OF IAZA (20% of MTD) AND 10 Gy RADIATION DOSE (Green stain indicates the hypoxic region in tumor)

[1] abbreviates: compared with radiotherapy alone.

The results in this text go back to patent publication US20220249710A1, “BIOREDUCTIVELY-ACTIVATED COMPOUNDS, THEIR PRODRUGS, RADIOPHARMACEUTICALS, THE COMPOSITIONS, AND THEIR APPLICATIONS IN MULTIMODAL THERANOSTIC MANAGEMENT OF HYPOXIA DISEASES INCLUDING CANCER” (The Governors of the University of Alberta, priority 2017, published 2022).

For `O=[N+]([O-])c1nccn1[C@@H]1O[C@H](C[125I])[C@@H](O)[C@@H]1O` [IAZA], the morbidity result is “no morbidity”. Under setting [1], the “hypoxic content of the tumor” value was “Reduction in hypoxic content of the tumor” and the tumor size result was “tumor size reduction”.
